The structures appear in SMILES notation.

Holding throughout (assay type): cell-based
Assay [1] concerns the target T1, human prostanoid FP receptor (Homo sapiens, UniProt P43088).
T1 construct: expressed in transfected cells
Briefly: FLIPR Ca2+ signaling antagonist assay, FP receptor stable cell line. The following applies: HEK-293 EBNA stable cell line; standard agonist 17-phenyl-PGF2α; NA = inactive (no antagonism or Kb 10,000 nM); PAg, Ag not defined. The method in brief: (§1)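 Peak Fluo-4 fluorescence (ex 470–495, em 515–575 nm) was read for 3.5 min on FLIPR after agonist injection and expressed relative to 10^−6 M standard agonist. Cells were HEK-293 EBNA transfectants. Test compound was added 4.5 min beforehand at 0.1–30 μM, or 0.067–1 μM for TP.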

The target in assay [2] is T2, human prostanoid DP1 receptor (Homo sapiens, UniProt Q13258).
T2 construct: expressed in transfected cells
T2 sequence (Q13258 1-359): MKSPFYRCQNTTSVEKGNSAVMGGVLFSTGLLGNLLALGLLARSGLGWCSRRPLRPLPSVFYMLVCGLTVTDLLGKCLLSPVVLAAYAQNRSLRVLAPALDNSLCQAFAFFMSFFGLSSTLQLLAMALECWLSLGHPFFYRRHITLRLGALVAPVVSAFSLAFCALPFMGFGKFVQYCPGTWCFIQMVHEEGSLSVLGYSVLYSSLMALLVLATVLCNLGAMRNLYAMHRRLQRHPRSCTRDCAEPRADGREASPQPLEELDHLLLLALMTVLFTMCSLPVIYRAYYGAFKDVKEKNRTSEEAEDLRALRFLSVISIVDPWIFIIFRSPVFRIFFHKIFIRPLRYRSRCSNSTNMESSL
Briefly: FLIPR Ca2+ signaling antagonist assay, DP1 receptor stable cell line. The following applies: HEK-293 EBNA stable cell line; standard agonist BW 245C; NA = inactive (no antagonism or Kb 10,000 nM); PAg, Ag not defined. The method in brief:
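Functional antagonism measured by Ca2+ flux at 37 °C. Agonist ranges were 10^−11 to 10^−5 M, or 10^−12 to 10^−6 M for TP with U-46619; PGE2 for EP1/EP3, BW 245C for DP1. Compound spanned 0.1–30 μM except TP, 0.067–1 μM.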

Assay [3] concerns the target T3, human prostanoid EP1 receptor (Homo sapiens, UniProt P34995).
T3 construct: expressed in transfected cells
T3 sequence (P34995 1-402): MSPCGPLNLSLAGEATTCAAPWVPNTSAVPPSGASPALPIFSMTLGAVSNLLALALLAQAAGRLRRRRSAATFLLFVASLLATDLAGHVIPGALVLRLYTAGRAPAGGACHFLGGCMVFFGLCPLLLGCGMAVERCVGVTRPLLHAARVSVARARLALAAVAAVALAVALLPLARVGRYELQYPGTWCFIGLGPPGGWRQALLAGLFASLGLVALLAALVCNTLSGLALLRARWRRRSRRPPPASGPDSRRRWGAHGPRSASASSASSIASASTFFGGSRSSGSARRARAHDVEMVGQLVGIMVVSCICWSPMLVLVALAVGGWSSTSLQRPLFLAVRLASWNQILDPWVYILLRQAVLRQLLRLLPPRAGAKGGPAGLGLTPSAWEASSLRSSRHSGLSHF
The experiment in a line: FLIPR Ca2+ signaling antagonist assay, EP1 receptor stable cell line. The following applies: HEK-293 EBNA stable cell line; standard agonist PGE2; NA = inactive (no antagonism or Kb 10,000 nM); PAg, Ag not defined. The gist of the method: (§2)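 HEK-293 EBNA cells stably expressing receptor (EP3 co-expressed with chimeric Gqi; EP1, IP, TP without exogenous G protein), Fluo-4 loaded, read on FLIPR at 37° C. Antagonist added 4.5 min before standard agonist (EP1/EP3 PGE2, IP cicaprost 10^−11–10^−5 M; TP U-46619 10^−12–10^−6 M); antagonist 0.1–30 μM, TP 0.067–1 μM; peak fluorescence relative to 10^−6 M agonist.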

Assay [4] has as its target T4, human prostanoid EP2 receptor (Homo sapiens, UniProt P43116).
T4 construct: expressed in transfected cells
Briefly: FLIPR Ca2+ signaling antagonist assay, EP2 receptor stable cell line. The following applies: HEK-293 EBNA stable cell line; standard agonist PGE2; NA = inactive (no antagonism or Kb 10,000 nM); PAg, Ag not defined. As to the method: The above compounds were tested for PG antagonist activity as follows using human recombinant prostanoid receptor (DP1, EP1-4, FP, IP and TP) stable cell lines:
In order to measure the response of Gs and Gi coupled prostanoid receptors as a Ca^2+ signal, chimeric G protein cDNAs were used. Stable cell lines over-expressing human prostanoid DP1, EP1-4, FP, IP, and TP receptors were established as follows:
Briefly, human prostanoid DP1, EP2, and EP4 receptor cDNAs were co-transfected with chimeric Gqs cDNA containing a haemagglutanin (HA) epitope; human prostanoid EP3 receptors were co-transfected with chimeric Gqi-HA; human EP1, FP, IP, and TP receptor cDNAs were expressed with no exogenous G-proteins. Gqs and Gqi chimeric cDNAs (Molecular Devices, Sunnyvale, Calif., U.S.A.), as well as cDNAs of prostanoid receptors, were cloned into a pCEP4 vector with a hygromycin B selection marker. Transfection into HEK-293 EBNA (Epstein-Barr virus nuclear antigen) cells was achieved by the FuGENE 6 transfection Reagent (Roche Applied Science, Indianapolis, Ind., USA). Stable transfectants were selected according to hygromycin resistance. Because Gqs and Gqi contained an HA epitope, G-protein expression was detected by Western blotting analysis using anti-mouse HA monoclonal antibody and horseradish peroxidase (HRP)-conjugated secondary antibody, while functional expression of prostanoid receptors was detected by FLIPR screening (Matias et al., 2004). These stable cell lines were validated using previously published antagonists at 10 μM against serial dilutions of standard agonists by FLIPR functional assays for Ca^2+ Signaling (as described below).
Ca^2+ signaling studies were performed using a FLIPR TETRA system (Molecular Devices, Sunnyvale, Calif., USA) in the 384-format. This is a high-throughput instrument for cell-based assays to monitor Ca^2+ signaling associated with GPCRs and ion channels. Cells were seeded at a density of 5×10^4 cells/well in BioCoat poly-D-lysine coated, black wall, clear bottom 384-well plates (BD Biosciences, Franklin lakes, NJ, USA) and allowed to attach overnight in an incubator at 37° C. The cells were then washed twice with HBSS-HEPES buffer (Hanks' balanced salt solution without bicarbonate and phenol red, 20 mM HEPES, pH 7.4) using an ELx405 Select CW Microplate Washer (BioTek, Winooski, Vt., USA). After 60 min of dye-loading in the dark using the Ca^2+-sensitive dye Fluo-4AM (Invitrogen, Carlsbad, Calif., USA), at a final concentration of 2×10^−6M, the plates were washed 4 times with HBSS-HEPES buffer to remove excess dye and leaving 50 μl of buffer in each well. The plates were then placed in the FLIPR TETRA instrument and allowed to equilibrate at 37° C. AGN-211377 was added in a 25 μl volume to each well to give final concentrations of 0.1 μM, 0.3 μM, 1 μM, 3 μM, 10 μM, and 30 μM; or 0.067 μM, 0.1 μM, 0.2 μM, 0.3 μM, 0.67 μM, and 1 μM for cells over-expressing TP receptors. After 4.5 minutes, a 7-point serial dilution of the standard agonist for the corresponding receptor, in a 25 μl volume was injected at the final concentrations from 10^−11M to 10^−5M in 10-fold serial dilution increments for cells expressing human recombinant DP1, EP1, EP2, EP3, EP4, FP, and IP receptors. The dose range for the standard agonist for human recombinant TP receptors was from 10^−12 M to 10^−6 M. HBSS-HEPES buffer was used as the negative control for the standard agonists. Cells were excited with LED (light emitting diode) excitation at 470-495 nm and emission was measured through an emission filter at 515-575 nm. Assay plates were read for 3.5 minutes using the FLIPR^TETRA. The peak increase in fluorescence intensity was recorded for each well. On each plate, negative controls, dose response of positive controls, and co-treatments of antagonist-agonist for each dose were in triplicates.
Standard agonists were as follows: DP=BW 245C, EP1-EP4=PGE2, FP=17-phenyl-PGF2α, IP=Cicaprost, and TP=U-46619. […]

For assay [5], the target named is T5, human prostanoid IP receptor (Homo sapiens, UniProt P43119).
T5 construct: expressed in transfected cells
T5 sequence (P43119 whole entry): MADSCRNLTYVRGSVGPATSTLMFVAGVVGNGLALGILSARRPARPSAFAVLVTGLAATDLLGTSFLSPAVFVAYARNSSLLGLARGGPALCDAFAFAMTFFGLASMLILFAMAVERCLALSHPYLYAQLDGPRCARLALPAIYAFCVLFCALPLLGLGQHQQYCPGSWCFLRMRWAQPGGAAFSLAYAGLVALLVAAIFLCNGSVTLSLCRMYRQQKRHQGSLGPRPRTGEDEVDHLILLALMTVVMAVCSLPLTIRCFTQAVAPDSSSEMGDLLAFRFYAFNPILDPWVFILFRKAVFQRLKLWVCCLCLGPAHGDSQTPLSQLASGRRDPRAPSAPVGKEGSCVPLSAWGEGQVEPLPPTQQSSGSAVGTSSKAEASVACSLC
The experiment in a line: FLIPR Ca2+ signaling antagonist assay, IP receptor stable cell line. The following applies: HEK-293 EBNA stable cell line; standard agonist Cicaprost; NA = inactive (no antagonism or Kb 10,000 nM); PAg, Ag not defined. The method in brief: as §2

The target of assay [6] is T6, human prostanoid TP receptor (Homo sapiens, UniProt P21731).
T6 construct: expressed in transfected cells
T6 sequence (P21731 1-343): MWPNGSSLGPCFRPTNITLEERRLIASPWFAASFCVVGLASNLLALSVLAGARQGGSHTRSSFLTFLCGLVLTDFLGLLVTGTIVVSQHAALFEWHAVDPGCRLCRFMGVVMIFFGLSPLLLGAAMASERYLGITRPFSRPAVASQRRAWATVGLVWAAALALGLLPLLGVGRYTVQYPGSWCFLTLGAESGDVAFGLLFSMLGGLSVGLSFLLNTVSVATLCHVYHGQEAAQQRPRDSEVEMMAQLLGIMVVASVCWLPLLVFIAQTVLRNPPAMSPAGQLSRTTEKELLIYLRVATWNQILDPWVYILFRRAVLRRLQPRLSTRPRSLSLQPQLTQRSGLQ
The experiment in a line: FLIPR Ca2+ signaling antagonist assay, TP receptor stable cell line. The following applies: HEK-293 EBNA stable cell line; standard agonist U-46619; NA = inactive (no antagonism or Kb 10,000 nM); PAg, Ag not defined. The method in brief:
as §2

Assay [7] deals with T7, human prostanoid EP4 receptor (Homo sapiens, UniProt P35408).
T7 construct: expressed in transfected cells
T7 sequence (P35408 whole entry): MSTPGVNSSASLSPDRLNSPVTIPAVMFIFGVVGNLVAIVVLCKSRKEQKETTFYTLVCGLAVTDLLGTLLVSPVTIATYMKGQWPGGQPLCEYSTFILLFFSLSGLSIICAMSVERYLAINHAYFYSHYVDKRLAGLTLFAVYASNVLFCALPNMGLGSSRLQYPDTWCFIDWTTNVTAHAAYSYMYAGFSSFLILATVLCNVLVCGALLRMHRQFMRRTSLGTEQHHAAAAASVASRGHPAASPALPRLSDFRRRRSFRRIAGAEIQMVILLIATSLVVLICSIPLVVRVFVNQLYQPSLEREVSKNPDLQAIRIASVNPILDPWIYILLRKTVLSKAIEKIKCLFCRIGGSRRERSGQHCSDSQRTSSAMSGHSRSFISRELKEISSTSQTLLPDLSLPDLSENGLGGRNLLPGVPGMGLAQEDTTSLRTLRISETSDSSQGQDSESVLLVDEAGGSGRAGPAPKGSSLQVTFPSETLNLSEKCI
Briefly: FLIPR Ca2+ signaling antagonist assay, EP4 receptor stable cell line. The following applies: HEK-293 EBNA stable cell line; standard agonist PGE2; NA = inactive (no antagonism or Kb 10,000 nM); PAg, Ag not defined. The method in brief: as §1

T1 sequence (P43088 whole entry): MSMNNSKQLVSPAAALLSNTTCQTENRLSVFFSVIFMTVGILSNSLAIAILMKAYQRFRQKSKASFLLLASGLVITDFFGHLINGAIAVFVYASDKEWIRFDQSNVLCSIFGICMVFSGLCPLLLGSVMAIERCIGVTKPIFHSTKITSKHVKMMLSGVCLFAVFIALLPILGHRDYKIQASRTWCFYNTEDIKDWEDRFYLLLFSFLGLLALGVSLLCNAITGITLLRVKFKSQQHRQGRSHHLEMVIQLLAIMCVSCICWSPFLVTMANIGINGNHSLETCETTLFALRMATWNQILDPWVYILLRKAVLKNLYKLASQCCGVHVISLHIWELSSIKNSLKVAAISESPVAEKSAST
T4 sequence (P43116 whole entry): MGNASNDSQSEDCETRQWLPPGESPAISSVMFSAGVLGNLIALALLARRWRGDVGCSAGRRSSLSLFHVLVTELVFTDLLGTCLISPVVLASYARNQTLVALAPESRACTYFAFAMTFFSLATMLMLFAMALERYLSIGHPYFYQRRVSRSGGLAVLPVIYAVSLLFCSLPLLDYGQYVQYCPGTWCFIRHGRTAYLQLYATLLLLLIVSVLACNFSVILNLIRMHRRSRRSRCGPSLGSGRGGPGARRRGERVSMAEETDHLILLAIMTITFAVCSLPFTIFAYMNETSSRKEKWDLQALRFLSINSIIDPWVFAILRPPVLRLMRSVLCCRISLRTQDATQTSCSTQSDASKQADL

For the molecule `Cc1cc(CCC(=O)O)nn1Cc1cc(Cl)ccc1OCc1ccc(Cl)cc1C(F)(F)F` [Example 29, 3-[1-(5-Chloro-2-(4-chloro-2-trifluoromethylbenzyloxy)benzyl)-5-methyl-1H-pyrazol-3-yl]-propionic acid], the Kb (in general, the equilibrium dissociation constant of an antagonist, usually derived from a functional assay) came out at 5900 nM in assay [1], 790 nM in assay [2], 70 nM in assay [3] and 9800 nM in assay [4]. The “IP (FLIPR) Kb” value in assay [5] is reported as “PAg”. Moreover, in assay [6], the “TP (FLIPR) Kb” value was “Ag”.
For the molecule `CCC(CC)COc1ccc(OC(F)(F)F)cc1Cn1nc(CCC(=O)O)cc1C` [Example 48, 3-[1-[2-(2-Ethyl-butoxy)-5-trifluoromethoxy-benzyl]-5-methyl-1H-pyrazol-3-yl]-propionic acid], the Kb in assay [1] was 150 nM; in assay [3], 80 nM; in assay [4], 3000 nM; in assay [7], 400 nM; in assay [5], 2300 nM; in assay [6], 40 nM. Also, the “DP1 (FLIPR) Kb” value in assay [2] is recorded as “PAg”.
In the case of `Cc1cc(CCC(=O)O)nn1Cc1cc(Cl)ccc1OCCCCC(C)C` [Example 36, 3-[1-(5-Chloro-2-(5-methylhexyloxy)benzyl)-5-methyl-1H-pyrazol-3-yl]-propionic acid], in assay [1], the Kb was found to be 170 nM. Moreover, in assay [2], the “DP1 (FLIPR) Kb” value is on record as “PAg”. The “EP1 (FLIPR) Kb” value in assay [3] was “Ag”. Besides, the “EP2 (FLIPR) Kb” value in assay [4] is given as “PAg”. The “EP4 (FLIPR) Kb” value in assay [7] was “Ag”. Besides, the “IP (FLIPR) Kb” value in assay [5] is reported as “Ag”. Moreover, the “TP (FLIPR) Kb” value in assay [6] is “Ag”.
`Cc1cc(CCC(=O)O)nn1Cc1cc(Cl)ccc1OC(CC(C)C)CC(C)C` [Example 23, 3-[1-(5-Chloro-2-(1-isobutyl-3-methylbutoxy)benzyl)-5-methyl-1H-pyrazol-3-yl]-propionic acid]: the Kb in assay [2] amounted to 160 nM; in assay [3], 1500 nM. In assay [4], the “EP2 (FLIPR) Kb” value is reported as “PAg”. In assay [7], the “EP4 (FLIPR) Kb” value is reported as “Ag”. The “IP (FLIPR) Kb” value in assay [5] was “Ag”. For the same molecule, the “TP (FLIPR) Kb” value in assay [6] is listed as “Ag”.
With `Cc1cc(CCC(=O)O)nn1Cc1cc(Cl)ccc1OCCC(C)C` [Example 21, 3-[1-(5-Chloro-2-(3-methylbutoxy)benzyl)-5-methyl-1H-pyrazol-3-yl]-propionic acid], the Kb in assay [1] was determined as 225 nM; in assay [3], 350 nM; in assay [4] it was 8200 nM; in assay [7] it was 1000 nM; in assay [5], 5530 nM; in assay [6] it was 30 nM. The “DP1 (FLIPR) Kb” value in assay [2] is reported as “PAg”.
Take `Cc1cc(CCC(=O)O)nn1Cc1cc(Br)ccc1OCC(C)C` [Example 16, 3-[1-(5-Bromo-2-isobutoxybenzyl)-5-methyl-1H-pyrazol-3-yl]-propionic acid]: the antagonist equilibrium constant (Kb) in assay [1] was found to be 70 nM; in assay [2] it was 200 nM; in assay [3], 14 nM; in assay [4], 2700 nM; in assay [7], 1000 nM; in assay [6], 14 nM.
Regarding `Cc1cc(CCC(=O)O)nn1Cc1cc(Cl)ccc1OCC(C)C` [Example 42, 3-[1-(5-Chloro-2-(2-methylpropyloxy)benzyl)-5-methyl-1H-pyrazol-3-yl]-propionic acid], the Kb in assay [1] is 180 nM; in assay [2] it was 260 nM; in assay [3], 30 nM; in assay [4] it was 2500 nM; in assay [7], 1600 nM; in assay [6], 40 nM.
Take `Cc1cc(CC(C)(C)C(=O)O)nn1Cc1cc(Cl)ccc1OCC1CCCC1` [Example 72, 3-{1-[5-Chloro-2-(2-cyclopentylmethoxy)-benzyl]-5-methyl-1H-pyrazol-3-yl}-2,2-dimethyl-propionic acid]: the Kb in assay [1] was found to be 450 nM; in assay [2] it was 560 nM; in assay [3] it was 70 nM; in assay [7] it was 180 nM; in assay [5], 1700 nM; in assay [6], 40 nM.

The values are drawn from US9394284B2, “Compounds act at multiple prostaglandin receptors giving a general anti-inflammatory response” (Allergan, Inc., priority 2010, dated 2016).
